Laboratory results from patent publication US11547725B2, “Anti-cancer T cells and their preparation using coenzyme A” (UNIVERSITY HEALTH NETWORK, priority 2017, dated 2023).

How the values were obtained:
[1] = tested on: CD8+ T cells; experiment: Tc subset polarization of CD8+ T cells, intracellular cytokine staining by flow cytometry; type: cell-based, mouse; details: for Tc22 polarization: CD8+ T cells activated three days in Tc22 conditions, compound vs vehicle (oligomycin 100 nm, etomoxir 40 μm, pantothenate 8 mM, CoA 2.5-3.5 mM)
[2] = tested on: CD8+ T cells; experiment: Cytokines quantified in supernatant (cytometric bead array or ELISA); type: cell-based, mouse; details: three day culture, CD8+ T cells activated with vehicle or CoA
Protocol: (§1) Antibodies used for flow cytometry were purchased from eBioscience, Biolegend and BD Pharmingen. Antibody clones used were: CD4 (RM-45), CD8 (53-6.7), IL-22 (IL22JOP and Poly5164), IL-17 (eBio17B7), IFN-γ (XMG1.2) and TNF-α (MP6-XT22). Antibodies used for western blotting were HIF-1a (Caymen Chem-10006421) and β-actin (Sigma—A2066). For intracellular cytokine staining, cells were re-stimulated for 5-6 hours with Cell-Stimulation Cocktail (eBioscience) in the presence of Brefeldin A (eBioscience), followed by staining using Cytofix/Cytoperm (BD Pharmingen). Flow cytometry data was acquired on a FACSCanto II (BD) and analyzed using FlowJo software (Tree Star). Cytokines were quantified in the supernatant using LEGENDPLEX cytometric bead array (Biolegend) or by ELISA (eBioscience)
Oligomycin, Etomoxir, Diethyl succinate and Calcium-D Pantothenate were purchased from Sigma, and Coenzyme A Trilithium Salt (CoA) and HIF-inhibitor (CAS 934593-90-5) were purchased from EMD Millipore. Oligomycin (100 nm) was added to CD8+ T cells 24 hours after the start of activation, while Etomoxir (40 μm), Pantothenate (8 mM), Diethyl Succinate (14 mM) and HIF-Inhibitor (40 μM) were added at the start of activation. CoA was added at the start of activation unless otherwise indicated at a concentration of 2.5-3.5 mM depending on the lot.

[3] = tested on: CD8+ T cells; experiment: RNA sequencing of CD8+ T cells activated with CoA or vehicle; type: cell-based, mouse; details: RNA seq
Protocol: RNA was extracted from CD8+ T cells activated for three days in the presence of CoA or Vehicle using Qiagen RNEasy kit. Libraries were prepared using TruSeq Stranded Total RNA kit. Two hundred nanograms from RNA samples were ribosomal RNA depleted using Ribo-zero Gold rRNA beads, following purification the RNA was fragmented. The cleaved RNA fragments were copied into first strand cDNA using reverse transcriptase and random primers. This is followed by second strand cDNA synthesis using RNase H and DNA Polymerase I. A single “A” based were added and adapter ligated followed by purification and enrichment with PCR to create cDNA libraries. Final cDNA libraries were size validated using Agilent Bioanalyzer and concentration validated by qPCR. All libraries were normalized to 10 nM and pooled together. 10 pM of pooled libraries were loaded onto Illumina cBot for cluster generation. Clustered flow cell was then sequenced Pair-end 100 cycles V3 using Illumina HighSeq 2000 to achieve ˜30 million reads per sample.
The Tophat (2.0.8b) software suite with Bowtie (2.0.5) was used to align reads to the Mus musculus mm10 mouse genome (igenome). […] The cufflinks (2.2.1) software suite was used to quantify alignments. Cuffquant was used to quantify individual sample alignments and Cuffnorm was used to normalize quantified data for each group of biological replicates. […]

[4] = tested on: CD8+ T cells; experiment: Seahorse OCR / ECAR; type: cell-based, mouse
Protocol: (§2) Seahorse was performed as previously described (11). ATP quantification was performed on day 3 polarized T cells using a commercial kit (Sigma) according to the recommended protocol. For SITA, CD8+ T cells activated for three days in the presence of vehicle or CoA were harvested, washed and incubated for 2.5 hours with U-13C6-glucose (Cambridge Isotopes). Cells were then washed and pellet was frozen in methanol. The cells were thawed on ice and lysed by sonication at 4° C. using a Diagenode Bioruptor (30s. on, 30s off, 5 mins). The resulting mixtures were spun down (15 mins 13000 rpm 4° C.) to remove the cellular debris, the resulting supernatants were transferred to clean microfuge tubes and the solvent was removed using a speed-vac at room temperature. The resulting pellets were stored at −70° C. until derivitization. The pellets were solubilized in 30 μL of pyridine containing methoxyamine(10 mg/mL; Sigma) and each sample was spiked with 1 μL of myristic acid-D27 (750 ng/mL in pyridine; Cambridge Isotopes). The samples were vortexed, sonicated, transferred to autoinjection vials and incubated at room temperature for 30 mins. Subsequent to this, 70 uL of N-tert-Butyldimethylsilyl-N-methyltrifluoroacetamide (MTBSTFA; Sigma) was added and the samples were incubated at 70° C. for 30 mins. GC/MS analysis was performed using an Agilent 5975C GC/MS equipped with a DB-5MS+DG capillary column. 1 uL of sample was injected onto the GC column in splitless mode with an inlet temperature of 280° C. and the data was collected by electron impact set at 70 eV. Helium was used as the carrier gas with a flow rate of 1.55 mL/min. The quadrupole was set at 150° C. and the GC/MS interface at 285° C. The oven program for all metabolite analyses started at 60° C. held for 1 min, then increasing at a rate of 10° C./min until 320° C. Bake-out was at 320° C. for 10 mins and the sample data were acquired in scan mode (1-600 m/z).
To further characterize these observed differences in each Tc subset, we analyzed their respective utilization of glycolysis versus OXPHOS using the Seahorse Bioanalyzer. This method allows the concurrent measurement of the oxygen consumption rate (OCR—indicative of OXPHOS) and the extracellular acidification rate (ECAR—indicative of glycolysis) in real-time. […] Consistent with the increased ATP yield of oxidative metabolism compared to glycolysis, Tc22s had the highest amounts of intracellular ATP (FIG. 1F). We also observed metabolites involved in the TCA cycle and OXPHOS, particularly succinate, to be increased in Tc22s (FIG. 6).

[5] = tested on: CD8+ T cells; experiment: ATP quantification (commercial kit); type: cell-based, mouse; details: CD8+ T cells activated with CoA vs vehicle
Protocol: as §2, with “1 uL of sample was injected onto the GC column in splitless mode with an inlet temperature of 280° C. and the data was collected by electron impact set at 70 eV. Helium was used as the carrier gas with a flow rate of 1.55 mL/min. The quadrupole was set at 150° C. and the GC/MS interface at 285° C. The oven program for all metabolite analyses started at 60° C. held for 1 min, then increasing at a rate of 10° C./min until 320° C. Bake-out was at 320° C. for 10 mins and the sample data were acquired in scan mode (1-600 m/z).” left out

[6] = tested on: CD8+ T cells; experiment: Stable isotope tracer analysis (SITA) with 13C-glucose, GC/MS; type: cell-based, mouse; details: three days CoA or vehicle
Protocol: as §2, with “GC/MS analysis was performed using an Agilent 5975C GC/MS equipped with a DB-5MS+DG capillary column. 1 uL of sample was injected onto the GC column in splitless mode with an inlet temperature of 280° C. and the data was collected by electron impact set at 70 eV. Helium was used as the carrier gas with a flow rate of 1.55 mL/min. The quadrupole was set at 150° C. and the GC/MS interface at 285° C. The oven program for all metabolite analyses started at 60° C. held for 1 min, then increasing at a rate of 10° C./min until 320° C. Bake-out was at 320° C. for 10 mins and the sample data were acquired in scan mode (1-600 m/z).” left out
The data was analyzed using Agilent MSD-Chemstation interfaced to the NIST11 library. […]

[7] = tested on: HIF-1α; experiment: Western blotting for HIF-1a; type: cell-based, mouse; details: CD8+ T cells activated with vehicle or CoA
Protocol: as §1

[8] = tested on: CD4+ T cells; experiment: Th22 polarization of SMARTA CD4+ T cells, cytokine expression; type: cell-based, mouse; details: CoA vs vehicle, non-polarizing or Th22 conditions
[9] = tested on: CD4+ T cells; experiment: OCR, OCR:ECAR ratio and ATP production in CD4+ T cells; type: cell-based, mouse; details: CD4+ T cells activated with vehicle or CoA
Protocol: as §2, with “1 uL of sample was injected onto the GC column in splitless mode with an inlet temperature of 280° C. and the data was collected by electron impact set at 70 eV. Helium was used as the carrier gas with a flow rate of 1.55 mL/min. The quadrupole was set at 150° C. and the GC/MS interface at 285° C. The oven program for all metabolite analyses started at 60° C. held for 1 min, then increasing at a rate of 10° C./min until 320° C. Bake-out was at 320° C. for 10 mins and the sample data were acquired in scan mode (1-600 m/z).” left out

[10] = tested on: dextran sulfate sodium (DSS) colitis; experiment: DSS colitis model; type: in vivo, mouse; details: 2.5% DSS in water 5 days; oral CoA 0.5 mg/mL in drinking water vs vehicle
Protocol: For DSS-colitis experiments, 8-12 week old female C57BL/6 mice were randomized into different cohorts and colitis was induced using 2.5% DSS (MP Bio) added to the drinking water of mice for 5 consecutive days. CoA (0.5 mg/mL) or vehicle control was added to the drinking water on day 0. On day 5, mice were switched to fresh water without any DSS added, supplemented with either CoA (0.5 mg/mL) or vehicle control.

[11] = tested on: human CD8+ cells; experiment: Human T cell Tc22 polarization, intracellular cytokines by flow cytometry; type: cell-based; details: human naive T cells, Tc22 conditions, pantothenate 8 mM on day 0, five days
Protocol: Peripheral blood mononuclear cells were obtained from healthy donors following institutional review board approval. Written informed consent was obtained from all donors who provided the samples. PBMCs were magnetically sorted for naïve T cells (Miltenyi Biotec) and seeded into a 96-well plate previously coated with 5 μg/mL anti-CD3 (eBioscience, clone OKT3). To induce Tc22 polarization, the following antibodies and cytokines were added to culture: 1 μg/mL anti-CD28 (eBioscience, clone CD28.2), 5 μg/mL anti-IFNγ (BioLegend, clone B27), 5 μg/mL anti-IL-4 (BioLegend, clone 8D4-8), 5 μg/mL anti-TGFβ (eBioscience, clone 1D11.16.8), 20 ng/mL IL-6, 10 ng/mL IL-21, 10 ng/mL IL-23, 40 ng/mL TNF-α (All from BioLegend) and 2 ng/mL FICZ. Pantothenate (8 mM) or vehicle control was also added on day 0. Five days later, cells were stimulated with PMA/ionomycin+Brefeldin for 5-6 hours. Cells were then stained and analyzed for intracellular cytokines by flow cytometry.

[12] = re-stimulated 48 hours with anti-CD3 with vehicle or CoA
[13] = CD8+ T cells activated with CoA vs vehicle

## CC(C)(COP(=O)(O)OP(=O)(O)OC[C@H]1O[C@@H](n2cnc3c(N)ncnc32)[C@H](O)[C@@H]1OP(=O)(O)O)[C@@H](O)C(=O)NCCC(=O)NCCS.[Li].[Li].[Li] [CoA, Coenzyme A Trilithium Salt]
[1]
  Tc22 polarization: greatly enhanced polarization
[1]; CD8+ T cells activated with CoA alone, absence of polarizing cytokines
  Cytokine expression in non-polarizing conditions: skewed primarily towards an IL-22^+ IL-17^− IFNγ^− population
[1]; CoA with anti IL-6 (10 ug/mL), three days
  Tc22 induction in presence of IL-6 neutralizing antibody: retained the ability to induce Tc22s
[1]; platebound anti-CD3 and soluble anti CD28, three days, CoA added 24 hours after start, non-polarizing or Tc22 conditions
  Tc22 polarization in APC-free system: induced and enhanced Tc22 polarization
[1]; [12]
  IL-22 production in previously activated CD8+ T cells: able to induce IL-22 production
[2]
  Cytokine profile in supernatants: primarily up-regulate IL-22
[3]; CoA alone vs vehicle, three days
  Expression of genes up-regulated by Tc22 polarizing cytokines (Tc22 signature): strongly up-regulated
[3]; CoA vs vehicle
  Gene expression altered by treatment (GO term analysis): primarily altered the expression of immune system genes and not metabolic genes
[4]; [13]
  Basal ECAR: lower basal ECAR
  Basal OCR: higher basal OCR
  OCR:ECAR ratio: high OCR:ECAR ratio
[4]; [12]
  Oxidative phenotype (OCR, ECAR, OCR:ECAR, ATP) in previously activated CD8+ T cells: promote an oxidative phenotype
[5]
  Intracellular levels of ATP: increased intracellular levels of ATP
[6]
  Total intracellular pools of TCA intermediates: increased total intracellular pools of many of the TCA intermediates
[6]; then 2.5 hours 13C glucose
  Incorporation of 13C label into TCA metabolites: enhanced incorporation of the ^13C label into TCA metabolites
[7]
  Levels of HIF-1α: substantially increased levels of HIF-1α
[8]
  Th22 polarization: induced and enhanced Th22 polarization
[9]
  ATP production in CD4+ T cells: enhanced ATP production
  Metabolic shift (OCR, OCR:ECAR ratio) in CD4+ T cells: metabolic shift towards OXPHOS
[10]
  Disease severity (% weight loss): decrease in disease severity

## CCOC(=O)[C@@]1(CCCCCCOc2ccc(Cl)cc2)CO1 [etomoxir, Etomoxir]
[1]
  Tc22 polarization: had no effect on Tc22 polarization

## CC[C@H]1/C=C/C=C/C[C@@H](C)[C@H](O)[C@@](C)(O)C(=O)[C@@H](C)[C@H](O)[C@@H](C)C(=O)[C@@H](C)[C@H](O)[C@@H](C)/C=C/C(=O)O[C@@H]2[C@H](C)[C@H](CC1)O[C@]1(CC[C@H](C)[C@H](C[C@@H](C)O)O1)[C@H]2C [oligomycin, Oligomycin]
[1]
  Tc22 polarization: decrease in Tc22 polarization
[1]; Tc1 conditions, oligomycin 100 nm added 24 hours after start of activation
  Tc1 polarization: did enhance Tc1 polarization
[1]; Tc17 conditions, oligomycin 100 nm added 24 hours after start of activation
  Tc17 polarization: did not affect Tc17 polarization

## CC(C)(CO)[C@@H](O)C(=O)NCCC(=O)O [pantothenate, Calcium-D Pantothenate]
[1]
  Tc22 polarization: enhanced polarization
[11]
  Tc22 polarization, human CD8+ cells: enhanced polarization

## CCOC(=O)CCC(=O)OCC [succinate, Diethyl succinate]
[1]; CD8+ T cells activated three days with exogenous succinate (diethyl succinate 14 mM)
  IL-22 production: enhanced IL-22 production
